# Results: PMC8424644, “Thermodynamic Stability and Speciation of Ga(III) and Zr(IV) Complexes with High-Denticity Hydroxamate Chelators” (Inorganic Chemistry, 2021)
# Marks after values point to notes of the source that are not given here.
# Key:
# Assay type in all cases: physicochemical
# [1] = Ligand protonation constants, potentiometric titrations
# Description: The metal affinity of a ligand depends on its acid-base properties; therefore, the protonation equilibria of […] and […] were first investigated. The proton-dissociation processes of the ligands were followed by potentiometric titrations in the pH range 2-11. The hydrolytic stability of the ligands was monitored by a second titration of the same sample with NaOH, following back-acidification of the initially titrated sample. […] As was previously reported in the example of α- and β-alanine hydroxamic acids, the amino group may be more acidic than the hydroxamic group, or vice versa. […] However, such a precise analysis is not needed for the determination of the stability of […]-metal complexes and therefore was not performed. […] The potentiometric titrations of ligands and their complexes were carried out using a Titrando 905 (Metrohm) automatic titrator system, equipped with a combined glass electrode (Mettler Toledo, InLab Semi-Micro, with […] Polymer filling) and a 800 Dosino dosing system, equipped with a a 2 mL micro buret. The ionic strength was fixed at I = 0.1 M with NaClO4. The electrode was calibrated daily in terms of hydrogen ion concentration using HClO4 (0.1 M) with CO2-free NaOH solutions (0.1 M).[76] A stream of high-purity argon, presaturated with water vapor, was passed over the surface of the solution cell, the cell was filled with 50 mL of the studied solution, and the system was thermostated at 25.0 ± 0.2 °C. At least three titrations were performed for each system, with a starting concentration of the ligand of 1 mM and a 1:1 metal to ligand molar ratio with a 10% excess of the ligand in the pH range 2-11. The purity and exact concentration of the ligand solutions were determined using the Gran method.[77] Special care was taken to ensure that complete equilibration was attained. […] The potentiometric data were refined with the […][78] and […][79] programs, which use nonlinear least-squares methods.
# [2] = Fe(III) complex stability, pH-dependent UV–vis titrations
# Description: To evaluate the thermodynamic stability of Ga(III) and Zr(IV) complexes of the investigated ligands, the binding properties and speciation of Fe(III) complexes have first been determined (all the details are given in the Supporting Information). There are several reasons for this protocol. First, (i) the electron configuration of Ga(III) (d^10) and Zr(IV) (d^0) hinders the attainment of spectral information for most of the complexes. Furthermore, (ii) both metal ions are highly acidic and they are readily hydrolyzed over almost the entire pH range. In addition, (iii) the high charge to size ratio of the Zr(IV) ion implies the formation of complexes with an exceptional thermodynamic stability (already at very low pH); as a consequence, the stability constants cannot be directly determined using standard potentiometric titrations. Thus, the thermodynamic stability constants of the Fe(III)-H3L1 and Fe(III)-H4L2 systems were first determined (using a combination of potentiometric and pH-dependent UV–vis titrations), followed by Fe(III)–Ga(III) and Fe(III)–Zr(IV) metal–metal competition experiments. […]
# [3] = pZr calculation (ligand sequestering ability); settings: for pZr: pZr = −log[Zr(IV)free], pH 7.4, cL = 10 μM, cZr(IV) = 1 μM
# Description: Despite a large variety of PET chelators synthesized and tested in order to provide strong coordination of Ga(III) and Zr(IV) in vivo, until now it is has been hard to avoid the release of these metal ions in the body. Here we report two new Ga(III) and Zr(IV) hydroxamate chelators, designed to achieve an efficient sequestering of these metal ions but also to understand how the cyclization and the introduction of an additional hydroxamate group influences the stability of Zr(IV) complexes. Therefore, it is important to evaluate and compare the Ga(III)- and Zr(IV)-sequestering abilities of H3L1 and H4L2 with those of other chelators. However, the direct comparison of the stability constants of metal complexes is not straightforward, and other tools taking into account all the physicochemical properties of the ligands, i.e. their denticity, coordination modes, and acid–base properties, should be used.[52] In order to reliably compare the chelating abilities of H3L1 and H4L2 toward Ga(III) and Zr(IV) ions, the pM values were calculated. pFe was originally introduced by Raymond for the comparison of iron-siderophore systems;[53] pGa = −log[Ga(III)free] and pZr = −log[Zr(IV)free] were calculated at pH 7.4 with cL = 10 μM and cGa(III)/Zr(IV) = 1 μM (Table 2).
# [4] = potentiometric titrations, 25 °C, I = 0.1 M NaClO4
Structure (SMILES),"log K LH2 (ligand protonation) [1, 4]","log K LH3 (ligand protonation) [1, 4]","log K LH (ligand protonation) [1, 4]","log β LH2 (ligand protonation) [1, 4]","log β LH3 (ligand protonation) [1, 4]","log β LH (ligand protonation) [1, 4]",pK of [FeHL] ([FeHL1]+ to [FeL1]) ([2]; from UV–vis log β values (supplement)),pZr [3],"protonation constant of the amino group (log K) ([1]; not detectable in the experimental pH range 2–11, assumed on the basis of DFOB)","log K LH4 (ligand protonation) [1, 4]","log β LH4 (ligand protonation) [1, 4]","log β [FeHL] ([2]; pH-dependent UV–vis titrations, 25 °C, I = 0.1 M NaClO4)",pZr higher than the values for Zr(IV)-DFOB and Zr(IV)-H3L1 [3]
"O=C1CCCN(O)C(=O)CCCNC(=O)CCCN(O)C(=O)CCCNC(=O)CCCN(O)C(=O)CCCN1 [H3L1, 1,11,21-Trihydroxy-1,6,11,16,21,26-hexaazacyclotriacontane-2,7,12,17,22,27-hexaone]",9.24 ^d,8.31 ^d,9.89 ^d,19.13(1) ^d,27.44(1) ^d,9.89(1) ^d,3.21,32.4,–,–,–,–,–
"N[C@H]1CCCCNC(=O)CCCN(O)C(=O)CCCNC(=O)CCCN(O)C(=O)CCCNC(=O)CCCN(O)C(=O)CCCNC(=O)CCCN(O)C(=O)CCCNC1=O [H4L2, (S)-43-Amino-6,16,26,36-tetrahydroxy-1,6,11,16,21,26,31,36,41-nonaazacycloheptatetracontane-2,7,12,17,22,27,32,37,42-nonaone]",9.59 ^d,8.94 ^d,10.06 ^d,19.65(1) ^d,28.59(1) ^d,10.06(1) ^d,–,37.0,> 11,8.18 ^d,36.77(1) ^d,36.96(7) ^e,> 4 units
